Measurements taken from patent publication US6784153B1, “Methods of homing molecules to lung using membrane dipeptidase” (The Burnham Institute, priority 1998, dated 2004).
“Also recorded” adds a separate entry of the source.

Tests used:
[1] = target: T1, 55 kDa lung vascular surface protein (Mus musculus, UniProt P31428); test: peptide affinity chromatography of in vivo biotinylated lung extract; format: binding; settings: elution with GFE-1 peptide
T1 construct: from tissue; host or cells: Balb/c mouse lung, in vivo biotinylated, octylglucoside extract
T1 sequence (P31428 17-384): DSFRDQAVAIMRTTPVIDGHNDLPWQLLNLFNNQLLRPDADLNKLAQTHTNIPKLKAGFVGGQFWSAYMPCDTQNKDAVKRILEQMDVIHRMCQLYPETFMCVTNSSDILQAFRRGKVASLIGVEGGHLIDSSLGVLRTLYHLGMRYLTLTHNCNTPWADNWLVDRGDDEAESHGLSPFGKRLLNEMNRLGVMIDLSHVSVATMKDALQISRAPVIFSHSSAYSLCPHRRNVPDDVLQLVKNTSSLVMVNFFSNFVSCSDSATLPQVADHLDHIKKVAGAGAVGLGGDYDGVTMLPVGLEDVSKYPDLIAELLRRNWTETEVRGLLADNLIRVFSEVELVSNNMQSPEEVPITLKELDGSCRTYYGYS
Experimental: In vivo biotinylation of endothelial cell surface proteins was performed as previously described in De La Fuente et al., Am. J. Physiol. […] Briefly, Balb/c mice were anesthetized with Avertin and perfused slowly through the heart for 10 to 15 minutes with approximately 15 ml of PBS containing 0.5 mg/ml of sulfo-NHS-LC-biotin (Pierce; Rockford, Ill.). Well perfused lungs or control tissues such as brain were then collected and incubated on ice for 20 minutes. The tissues were then homogenized for preparation of extracts as described further below.
For preparation of extracts, mouse or rat lungs were first minced and then homogenized with a Brinkman homogenizer (Brinkman; Wesbury, N.Y.) in a minimal volume (2.5 ml/g of tissue) of cold PBS containing 100 mM N-octyl-β-D-glucopyranoside (Calbiochem; La Jolla, Calif.) with 1 mM phenylmethylsulfonyl fluoride (PMSF), 20 μg/ml aprotinin and 1 μg/ml leupeptin (PBS/octylglucoside). The homogenized tissue was incubated on ice for 2 hours, and then centrifuged at 12,000×g for 30 minutes to remove cell debris. The pooled supernatants were cleared of any debris prior to affinity chromatogaphy.
All steps were performed at 4° C. […] The matrix contained approximately 2 mg/ml of peptide. […] The extract was applied to the column, and the flow-through re-applied over a period of 90 minutes. The column was then washed with 20 volumes of column buffer. […]

mouse B16 = test: experimental lung metastasis of B16 melanoma cells; format: in vivo, mice; settings: mouse B16 melanoma cell line
Text: As disclosed herein, selective homing of GFE-1 (SEQ ID NO: 1) to lung endothelium in vivo is mediated by the cell surface protease, MDP.

kidney cells = test: phage binding assay on kidney primary cells; design: species or system mice; settings: t test, p<0.02
Experimental: Phage binding to primary cells was performed as follows. Briefly, Balb/c mice (Harlan Sprague Dawley) were anesthetized with 0.017 ml/g of Avertin as described in Gardner et al., Lab. Animal Sci. 45:199-204 (1995), which is incorporated herein by reference. Under deep anesthesia, mice were perfused through the heart with 10 ml Dulbecco's modified Eagle's medium (DMEM; Irvine Scientific; Santa Ana, Calif.). The lungs, kidneys and brain were then collected, minced, placed in 2 ml of DMEM containing 0.5% BSA (Intergen; Purchase, N.Y.) and 0.5 μg/ml collagenase V (SIGMA) and incubated at 37° C. for 25 minutes. Following collagenase treatment, the tissue was forced through a […] pore cell strainer (Becton Dickinson; Franklin Lake, N.J.). The filtered cells were washed once with 10 ml DMEM supplemented with 10% serum. […] To ensure an equal input of the different phage to be tested, phage were titered several times using K91Kan bacteria (Smith and Scott, supra, 1993).
For the binding reaction, 10^9 transducing units (TU) of phage were incubated with 5×10^6 cells in 1 ml DMEM supplemented with 10% serum. The binding was performed at 4° C. for 2 hours with gentle agitation. […] Plates were incubated at 37° C. overnight before the colonies were counted (transducing units, TU).

lung = test: immunohistologic analysis of lung homing phage; format: in vivo, mice
Experimental: Phage displaying homing peptides were detected in lung, pancreas and skin by immunostaining histologic sections obtained 5 min after administration of phage expressing a lung, pancreas or skin homing peptide (“peptide-phage”) to a mouse. Following administration of the peptide-phage, mice were handled as described above and various organs, including lung, pancreas and skin, were removed and fixed in Bouin's solution (SIGMA). Histologic sections were prepared and reacted with anti-M13 (phage) antibodies (Pharmacia Biotech; see U.S. Pat. No. 5,622,699, supra, 1997; Pasqualini and Ruoslahti, supra, 1996). Visualization of the bound anti-M13 antibody was performed using a second antibody conjugated to peroxidase (SIGMA) according to the manufacturer's instructions.
Phage displaying the lung homing peptide, GFE-1 (SEQ ID NO: 1), were administered intravenously to mice and, after 5 minutes of circulation, the lung was isolated and processed as described above. […] However, staining of bronchiolar walls and some larger blood vessels was absent.

CGFECVRQCPERC [lung homing peptide]
binding of lung surface protein to peptide affinity column [1]: a 55 kDa biotinylated protein was selectively eluted; also recorded: specifically binds to a 55 kDa lung vascular surface protein
experimental lung metastasis (mouse B16): inhibit experimental lung metastasis
phage binding to kidney cells relative to fd-tet (kidney cells): higher than fd-tet binding
immunohistochemical staining of lung (lung; 5 min after intravenous phage): staining of the alveolar capillaries was observed
staining of pancreas and skin after lung homing phage (lung; control tissues): no staining was observed in pancreas and skin
